{
  "source": "patent US9433593B1",
  "about": "“Composition for anti-inflammation containing 5-adamantan-1-yl-N-(2,4-dihydroxy-benzyl)-2,4-dimethoxy-benzamide” (Amorepacific Corporation, priority 2015, dated 2016)",
  "key": {"[1]": {"tested_on": "RAW 264.7 cells", "experiment": "Cytotoxicity by MTT method", "type": "cell-based", "procedure": "(§1) RAW 264.7 cells (murine macrophage cell line) (ATCC, Rockville, Md., USA) and HEK 293 cells were cultured in RPMI 1640 medium supplemented with FBS (10% heat-inactivated fetal bovine serum; Gibco, Grand Island, N.Y., USA), glutamine and antibiotics (penicillin and streptomycin) at 37° C. under 5% CO2.\nIn all experiments, the cells were detached with a cell scraper. When the cells were cultured to a density of 2×10^6 cells/mL, the ratio of dead cells was 1% or lower (determined by the trypan blue dye exclusion method)\nDuring subculturing, RAW 264.7 cells were plated on a well plate to a concentration of 1×10^6 cells/well. After culturing for 18 hours, the cells were treated with 5-adamantan-1-yl-N-(2,4-dihydroxybenzyl)-2,4-dimethoxybenzamide (denoted as ‘AP736’ in FIG. 1) at concentrations of 0-30 μM. Then, the cells were cultured in an incubator for 8 hours or 24 hours. Cytotoxicity was evaluated by the commonly used MTT method. 3 hours before the last culturing, 10 μL of an MTT (3-[4,5-dimethylthiazol-2-yl]-2,5-diphenyltetrazolium bromide) solution (10 mg/mL in phosphate-buffered saline, pH 7.4) was added to each well. After terminating reaction by adding 15% SDS (sodium dodecyl sulfate) to each well, the formed formazan crystals were dissolved. Then, absorbance was measured at 570 nm on a microplate reader."}, "[2]": {"tested_on": "NO production in RAW 264.7 cells", "experiment": "NO production in LPS-treated cells (Griess test)", "type": "cell-based, murine", "details": "0-30 μM for 30 minutes, then LPS (1 μg/mL) 24 hours, vs group treated only with LPS", "procedure": "as §1\n(§2) RAW 264.7 cells (1×10^6 cells/well) that had been preincubated for 18 hours were treated with 5-adamantan-1-yl-N-(2,4-dihydroxybenzyl)-2,4-dimethoxybenzamide (hereinafter, ‘AP736’) at concentrations of 0-30 μM for 30 minutes and then incubated for 6 hours or 24 hours with LPS (1 μg/mL). The supernatant was recovered after the incubation. The cells incubated for 6 hours were subjected to PGE2 analysis and those incubated for 24 hours were subjected to NO analysis. The NO concentration in the culture medium was measured by the Griess test (Promega, Madison, Wis., USA). And, the concentration of PGE2 released to the culture medium was measured using an EIA kit (Amersham, Little Chalfont, Buckinghamshire, UK)."}, "[3]": {"tested_on": "PGE2 production in RAW 264.7 cells", "experiment": "PGE2 production in LPS-treated cells (EIA kit)", "type": "cell-based, murine", "details": "0-30 μM for 30 minutes, then LPS (1 μg/mL) 6 hours, vs group treated only with LPS", "procedure": "as §1, §2"}, "[4]": {"tested_on": "iNOS", "experiment": "LPS-induced iNOS expression (RT-PCR)", "type": "cell-based, murine", "details": "RAW 264.7 cells, pretreated at different concentrations, LPS 4 hours", "procedure": "(§3) The expression level of iNOS, COX-2 and IL-1β which are known as inflammation-inducing factors was measured.\n(§4) In order to investigate the effect of 5-adamantan-1-yl-N-(2,4-dihydroxybenzyl)-2,4-dimethoxybenzamide on inhibition of iNOS, COX-2 and IL-1β expression in RAW 264.7 cells, the cells were pretreated with 5-adamantan-1-yl-N-(2,4-dihydroxybenzyl)-2,4-dimethoxybenzamide at different concentrations and then RT-PCR was conducted after treating with LPS for 4 hours."}, "[5]": {"tested_on": "COX-2", "experiment": "LPS-induced COX-2 expression (RT-PCR)", "type": "cell-based, murine", "details": "RAW 264.7 cells, pretreated at different concentrations, LPS 4 hours", "procedure": "as §3, §4"}, "[6]": {"tested_on": "IL-1β", "experiment": "LPS-induced IL-1β expression (RT-PCR)", "type": "cell-based, murine", "details": "RAW 264.7 cells, pretreated at different concentrations, LPS 4 hours", "procedure": "as §3, §4"}, "[7]": {"tested_on": "NF-κB", "experiment": "NF-κB luciferase reporter gene assay", "type": "cell-based", "details": "HEK 293 cells, NF-κB-Luc, MyD88 or TRIF cotransfected, 8 hours", "procedure": "as §1\n(§5) The activity of transcription factors can be tested by the luciferase reporter gene assay. It is known that the activity of NF-κB and AP-1 is induced by the TLR adapter protein. NF-κB and AP-1 are known to produce the inflammatory factors NO and PGE2.\n(§6) HEK 293 cells (1×10^6 cells/well) were cotransfected with 1 μg of a plasmid containing NF-κB-Luc (luciferase) and AP-1-Luc constructs. The transfection was conducted on a 12-well plate by the PEI method. After 48 hours, the transformed cells were used for experiment. MyD88 or TRIF (1 μg/mL each), which are known as TLR adapter proteins, were cotransfected for 8 hours together with 5-adamantan-1-yl-N-(2,4-dihydroxybenzyl)-2,4-dimethoxybenzamide (5-adamantan-1-yl-N-(2,4-dihydroxybenzyl)-2,4-dimethoxybenzamide is denoted as ‘AP736’ in FIG. 5). The luciferase reporter gene assay was performed using the luciferase assay system (Promega, Madison, Wis.)."}, "[8]": {"tested_on": "AP-1", "experiment": "AP-1 luciferase reporter gene assay", "type": "cell-based", "details": "HEK 293 cells, AP-1-Luc, MyD88 or TRIF cotransfected, 8 hours", "procedure": "as §1, §5, §6"}},
  "data": [
    {"smiles": "COc1cc(OC)c(C23CC4CC(CC(C4)C2)C3)cc1C(=O)NCc1ccc(O)cc1O", "note": "[5-adamantan-1-yl-N-(2,4-dihydroxybenzyl)-2,4-dimethoxybenzamide]", "values": [
      {"measurement": "cell viability", "setting": "[1]; 10 μM, treated for 8 hours", "result": 100, "unit": "%"},
      {"measurement": "cell viability", "setting": "[1]; 10 μM, treated for 24 hours", "result": 100, "unit": "%"},
      {"measurement": "cell viability", "setting": "[1]; 20 μM, treated for 8 hours", "result": 100, "unit": "%"},
      {"measurement": "cell viability", "setting": "[1]; 20 μM, treated for 24 hours", "result": 100, "unit": "%"},
      {"measurement": "cell viability", "setting": "[1]; 30 μM, cultured for 24 hours", "result": "~80", "unit": "%"},
      {"measurement": "NO production", "setting": "[2]", "result": "statistically significant decrease in NO production with increasing concentration"},
      {"measurement": "concentration of PGE2", "setting": "[3]", "result": "decreased as compared to the group treated only with LPS with increasing concentration"},
      {"measurement": "expression of the mRNAs and proteins of iNOS induced by LPS", "setting": "[4]", "result": "distinctly inhibited"},
      {"measurement": "expression of the mRNAs and proteins of COX-2 induced by LPS", "setting": "[5]", "result": "distinctly inhibited"},
      {"measurement": "expression of the mRNAs and proteins of IL-1β induced by LPS", "setting": "[6]", "result": "distinctly inhibited"},
      {"measurement": "activity of NF-κB", "setting": "[7]", "result": "decreased activity"},
      {"measurement": "activity of AP-1", "setting": "[8]", "result": "decreased activity"}
    ]}
  ]
}
